Each structure is given as a SMILES string. Counter-ions that a name gives are not always drawn.

Sequence of human TYK2 (JH2domain-pseudokinase) (P29597 556-888): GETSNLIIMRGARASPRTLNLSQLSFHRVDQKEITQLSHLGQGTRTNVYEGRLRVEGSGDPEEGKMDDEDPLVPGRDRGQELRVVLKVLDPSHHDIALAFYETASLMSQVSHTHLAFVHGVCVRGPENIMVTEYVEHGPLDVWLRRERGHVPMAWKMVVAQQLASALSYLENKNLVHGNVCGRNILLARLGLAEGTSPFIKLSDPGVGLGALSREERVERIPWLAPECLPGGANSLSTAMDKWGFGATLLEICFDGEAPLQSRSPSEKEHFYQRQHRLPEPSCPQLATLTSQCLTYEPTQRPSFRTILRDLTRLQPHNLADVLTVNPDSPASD

One assay concerns the target human TYK2 (JH2domain-pseudokinase) (Homo sapiens (Human), UniProt P29597). Description: TYK2 JH2 Domain Binding Assay (KINOMEscan competition binding). The note with it: KINOMEscan; 11-point 3-fold dilution, top concentration 30,000 nM; Kd measurements in duplicate; read-out: TYK JH2 (Kd). Here is the method: Binding constants for compounds disclosed herein may be determined by the KINOMEscan® assay developed by DiscoveRx. KINOMEscan® is based on a competition binding assay that quantitatively measures the ability of a compound to compete with an immobilized, active-site directed ligand. The assay is performed by combining three components: DNA-tagged kinase; immobilized ligand; and a test compound. The ability of the test compound to compete with the immobilized ligand is measure via quantitative PCR of the DNA tag.
Binding constants for compounds disclosed herein against the JH2 domain are determined by the following protocol for a KINOMEscan® assay (DiscoveRx). A fusion protein of a partial length construct of human TYK2 (JH2domain-pseudokinase) (amino acids G556 to D888 based on reference sequence NP 003322.3) and the DNA binding domain of NFkB is expressed in transiently transfected HEK293 cells. From these HEK 293 cells, extracts are prepared in M-PER extraction buffer (Pierce) in the presence of Protease Inhibitor Cocktail Complete (Roche) and Phosphatase Inhibitor Cocktail Set II (Merck) per manufacturers' instructions. The TYK2 (JH2domain-pseudokinase) fusion protein is labeled with a chimeric double-stranded DNA tag containing the NFkB binding site (5′-GGGAATTCCC-3′) fused to an amplicon for qPCR readout, which is added directly to the expression extract (the final concentration of DNA-tag in the binding reaction is 0.1 nM).
Streptavidin-coated magnetic beads (Dynal M280) are treated with a biotinylated small molecule ligand for 30 minutes at room temperature to generate affinity resins for the binding assays. The liganded beads are blocked with excess biotin and washed with blocking buffer (SeaBlock (Pierce), 1% BSA, 0.05% Tween 20, 1 mM DTT) to remove unbound ligand and to reduce nonspecific binding.
Extracts are used directly in binding assays without any enzyme purification steps at a >10,000-fold overall stock dilution (final DNA tagged enzyme concentration<0.1 nM). Extracts are loaded with DNA-tag and diluted into the binding reaction in a two-step process. First extracts are diluted 1:100 in 1× binding buffer (PBS/0.05% Tween 20/10 mM DTT/0.1% BSA/[…] sonicated salmon sperm DNA) containing 10 nM DNA-tag. This dilution is allowed to equilibrate at room temperature for 15 minutes and then subsequently diluted 1:100 in 1× binding buffer. Test compounds are prepared as 111× stocks in 100% DMSO. Kds are determined using an 11-point 3-fold compound dilution series with three DMSO control points. All compounds for Kd measurements are distributed by acoustic transfer (non-contact dispensing) in 100% DMSO. The compounds are then diluted directly into the assays such that the final concentration of DMSO is 0.9%. All reactions performed in polypropylene 384-well plates. Each is a final volume of 0.02 mL. Assays are incubated with shaking for 1 hour at room temperature. Then the beads are pelleted and washed with wash buffer (lx PBS, 0.05% Tween 20) to remove displaced kinase and test compound. The washed beads are re-suspended in elution buffer (lx PBS, 0.05% Tween 20, 0.5 μM non-biotinylated affinity ligand) and incubated at room temperature with shaking for 30 minutes. The kinase concentration in the eluates is measured by qPCR. qPCR reactions are assembled by adding 2.5 μL of kinase eluate to 7.5 μL of qPCR master mix containing 0.15 μM amplicon primers and 0.15 μM amplicon probe. The qPCR protocol consists of a 10-minute hot start at 95° C., followed by 35 cycles of 95° C. for 15 seconds, 60° C. for 1 minute.
Test compounds are prepared as 111× stocks in 100% DMSO. Kds are determined using an 11-point 3-fold compound dilution series with three DMSO control points. All compounds for Kd measurements are distributed by acoustic transfer (non-contact dispensing) in 100% DMSO. The compounds are then diluted directly into the assays such that the final concentration of DMSO is 0.9%. […]
A word on the Kd: it is the free concentration of one partner at which half of the binding sites on the other are occupied at equilibrium, for simple one-to-one binding. As for `CNC(=O)[C@H]1CCN(c2ncc(C(N)=O)c(Nc3ccc(C4CC4)nc3)n2)C1` [Compound 3, (S)-4-((6-cyclopropylpyridin-3-yl)amino)-2-(3-(methylcarbamoyl)pyrrolidin-1-yl)pyrimidine-5-carboxamide], the Kd stood at 54 nM.

As for `CCOC(=O)C1CCN(c2ncc(C(=O)NC)c(Nc3ccc(C4CC4)nc3)n2)CC1` [Compound 20, Ethyl 1-(4-((6-cyclopropylpyridin-3-yl)amino)-5-(methylcarbamoyl)pyrimidin-2-yl)piperidine-4-carboxylate], the dissociation constant (Kd) came out at 2500 nM.

`COc1ccccc1Nc1nc(N2CCC(C(=O)O)CC2)ncc1C(N)=O` [Compound 44, 1-(5-carbamoyl-4-((2-methoxyphenyl)amino)pyrimidin-2-yl)piperidine-4-carboxylic Acid]: the Kd came to 2400 nM.

Take `CNC(=O)c1cnc(N2CCN(C(C)=O)CC2C)nc1Nc1ccccc1S(C)(=O)=O` (stereo not shown) [Compound 76, 2-(4-acetyl-2-methylpiperazin-1-yl)-N-methyl-4-((2-(methylsulfonyl)phenyl)amino)pyrimidine-5-carboxamide]: the Kd turned out to be 210 nM.

`CNC(=O)c1cnc(N2CCCNCC2)nc1Nc1ccc(C2CC2)nc1` [Compound 22, 4-((6-cyclopropylpyridin-3-yl)amino)-2-(1,4-diazepan-1-yl)-N-methylpyrimidine-5-carboxamide Hydrochloride]: the Kd was 11000 nM.

Turning to `CNC(=O)c1cnc(N2CCCN(C(C)=O)CC2)nc1Nc1cccc(-c2ncc(F)cn2)c1OC` [Compound 77, 2-(4-acetyl-1,4-diazepan-1-yl)-4-((3-(5-fluoropyrimidin-2-yl)-2-methoxyphenyl)amino)-N-methylpyrimidine-5-carboxamide], the Kd turned out to be 170 nM.

With `CNC(=O)C1CN(c2ncc(C(N)=O)c(Nc3cccc(-c4ncc(F)cn4)c3OC)n2)C1` [Compound 48, 4-((3-(5-fluoropyrimidin-2-yl)-2-methoxyphenyl)amino)-2-(3-(methylcarbamoyl)azetidin-1-yl)pyrimidine-5-carboxamide], the Kd came out at 0.5 nM.

`COc1c(Nc2nc(N3CCC(C(=O)O)CC3)ncc2C(N)=O)cccc1-c1ncc(F)cn1` [Compound 38, 1-(5-carbamoyl-4-((3-(5-fluoropyrimidin-2-yl)-2-methoxyphenyl)amino)pyrimidin-2-yl)piperidine-4-carboxylic Acid]: the Kd turned out to be 7.8 nM.

Consider `COc1c(Nc2nc(N3CCCN(C(C)=O)CC3)ncc2C(N)=O)cccc1-c1ncc(F)cn1` [Compound 81, 2-(4-acetyl-1,4-diazepan-1-yl)-4-((3-(5-fluoropyrimidin-2-yl)-2-methoxyphenyl)amino)pyrimidine-5-carboxamide], for which the Kd was determined as 370 nM.

Consider `CCOC(=O)C1CCN(c2ncc(C(N)=O)c(Nc3ccccc3OC)n2)CC1` [Compound 45, Ethyl 1-(5-carbamoyl-4-((2-methoxyphenyl)amino)pyrimidin-2-yl)piperidine-4-carboxylate], for which the Kd was found to be 200 nM.

Take `CNC(=O)c1cnc(N2CCCN(C(C)=O)CC2)nc1Nc1ccccc1OC` [Compound 24, 2-(4-acetyl-1,4-diazepan-1-yl)-4-((2-methoxyphenyl)amino)-N-methylpyrimidine-5-carboxamide]: the Kd came out at 4900 nM.

Consider `CNC(=O)c1cnc(N2CCN(C(=O)OC(C)(C)C)CC2C)nc1Nc1cccc(-c2ncc(F)cn2)c1OC` (stereo not shown) [Compound 26, Tert-Butyl 4-(4-((3-(5-fluoropyrimidin-2-yl)-2-methoxyphenyl)amino)-5-(methylcarbamoyl)pyrimidin-2-yl)-3-methylpiperazine-1-carboxylate], for which the Kd came to 190 nM.

As for `CNC(=O)c1cnc(N2CCC(C(=O)O)CC2)nc1Nc1ccccc1OC` [Compound 33, 1-(4-((2-methoxyphenyl)amino)-5-(methylcarbamoyl)pyrimidin-2-yl)piperidine-4-carboxylic Acid], the Kd stood at 710 nM.

For the molecule `CNC(=O)c1cnc(N2CC(C(=O)NC)C2)nc1Nc1cccc(-c2ncc(F)cn2)c1OC` [Compound 49, 4-((3-(5-fluoropyrimidin-2-yl)-2-methoxyphenyl)amino)-N-methyl-2-(3-(methylcarbamoyl)azetidin-1-yl)pyrimidine-5-carboxamide], the Kd came to 2.3 nM.

Turning to `NC(=O)c1cnc(N2CCC(C(=O)O)CC2)nc1Nc1ccc(C2CC2)nc1` [Compound 35, 1-(5-carbamoyl-4-((6-cyclopropylpyridin-3-yl)amino)pyrimidin-2-yl)piperidine-4-carboxylic acid], the dissociation constant (Kd) was found to be 710 nM.

As to `COc1ccccc1Nc1nc(N2CCCN(C(C)=O)CC2)ncc1C(N)=O` [Compound 58, 2-(4-acetyl-1,4-diazepan-1-yl)-4-((2-methoxyphenyl)amino)pyrimidine-5-carboxamide], the Kd came out at 1800 nM.

As for `CNC(=O)c1cnc(N2CCC(C(=O)O)CC2)nc1Nc1ccc(C2CC2)nc1` [Compound 19, 1-(4-((6-cyclopropylpyridin-3-yl)amino)-5-(methylcarbamoyl)pyrimidin-2-yl)piperidine-4-carboxylic acid], the Kd was determined as 8200 nM.

Take `CNC(=O)c1cnc(N2CCCN(C(=O)OC(C)(C)C)CC2)nc1Nc1ccccc1OC` [Compound 30, Tert-Butyl 4-(4-((2-methoxyphenyl)amino)-5-(methylcarbamoyl)pyrimidin-2-yl)-1,4-diazepane-1-carboxylate]: the Kd was 44000 nM.

Turning to `COc1c(Nc2nc(N3CCCN(C(=O)OC(C)(C)C)CC3)ncc2C(N)=O)cccc1-c1ncc(F)cn1` [Compound 71, tert-butyl 4-(S-carbamoyl-4-((3-(5-fluoropyrimidin-2-yl)-2-methoxyphenyl)amino)pyrimidin-2-yl)-1,4-diazepane-1-carboxylate], the Kd worked out at 470 nM.

As for `CC(=O)N1CCCN(c2ncc(C(N)=O)c(Nc3ccc(C4CC4)nc3)n2)CC1` [Compound 64, 2-(4-acetyl-1,4-diazepan-1-yl)-4-((6-cyclopropylpyridin-3-yl)amino)pyrimidine-5-carboxamide], the Kd came to 1400 nM.

Consider `CCOC(=O)C1CCN(c2ncc(C(N)=O)c(Nc3ccc(C4CC4)nc3)n2)CC1` [Compound 36, Ethyl 1-(5-carbamoyl-4-((6-cyclopropylpyridin-3-yl)amino)pyrimidin-2-yl)piperidine-4-carboxylate], for which the Kd stood at 660 nM.

On to `CNC(=O)c1cnc(N2CCNCC2C)nc1Nc1ccccc1OC` (stereo not shown) [Compound 31, 4-((2-methoxyphenyl)amino)-N-methyl-2-(2-methylpiperazin-1-yl)pyrimidine-5-carboxamide Hydrochloride], for which the Kd is 4800 nM.

Turning to `CNC(=O)c1cnc(N2CCCN(C(C)=O)CC2)nc1Nc1ccccc1S(C)(=O)=O` [Compound 75, 2-(4-acetyl-1,4-diazepan-1-yl)-N-methyl-4-((2-(methylsulfonyl)phenyl)amino)pyrimidine-5-carboxamide], the Kd turned out to be 1300 nM.

`CNC(=O)[C@@H]1CCN(c2ncc(C(N)=O)c(Nc3cccc(-c4ncc(F)cn4)c3OC)n2)C1` [Compound 53, (R)-4-((3-(5-fluoropyrimidin-2-yl)-2-methoxyphenyl)amino)-2-(3-(methylcarbamoyl)pyrrolidin-1-yl)pyrimidine-5-carboxamide]: the Kd turned out to be 0.11 nM.

Staying with this assay, now noted: Table 4: pyrimidinyl compound of Formula I versus compounds with a different heteroaryl core; read-out: TYK JH2 (Kd).
For the molecule `CNC(=O)c1cnc(N2CCC(C(=O)NC)C2)nc1Nc1ccc(C2CC2)nc1` (stereo not shown) [drawing 147], the Kd came out at 170 nM.

The values above are taken from patent publication US20250257051A1, “SUBSTITUTED PYRIMIDINE COMPOUNDS AS TYK2 INHIBITORS” (1910 Genetics Inc., priority 2022, published 2025).
